Where “and” joins values, the source holds several entries; their conditions need not be identical. Equal values may be shown once.
Columns and labels:
Multiple dose PK/TK, dog = format: in vivo; settings: Beagle, dog, in vivo, po, 0295AD, capsules fed
Text: (§1) This section provides a summary of the pharmacokinetic and metabolism properties of AZD0328 derived from in vivo studies. […] The derived PK/TK parameters from these studies are presented in Table 4 for single dose studies (DMR4, 0619LR, 20030191PCR, DMO16, DMB10, DMW12, 50190, 0190DD and 03.330/1), and are presented in Table 5 multiple dose PK/TK studies (DMR4, 0612AR, DMB15, 50190, 0190DD and 0295AD).

rats = test: Nicotine drug discrimination; format: in vivo, rat
dog Purkinje fibre = test: Dog isolated cardiac Purkinje fibres, action potential; settings: 0.5 and 1 Hz
Procedure: Effects of AZD0328 on cardiac action potentials were assessed in 4 dog Purkinje fibre preparations. (Table 3). The following action potential parameters were measured at the stimulation frequencies 0.5 and 1 Hz: action potential duration at 50% (APD50), 70% (APD70) and 90% (APD90) of repolarisation; the maximum velocity of the action potential upstroke (Vmax); the action potential amplitude (APA) and the resting membrane potential (RMP). At both stimulation frequencies, AZD0328 caused a concentration-dependent prolongation of APD50, APD70 and APD90, with significant effects at 5.6 μM and above. There was also an indication of proarrhythmic potential of the compound.

Single dose PK/TK, rat = format: in vivo; settings: for AUC / Cmax / Tmax: in vivo
Text: as §1

[1] = female, 26 mg/kg, dog 6F, 26.0 mg/kg (120 μmol/kg) split into 17.3 and 8.7 mg/kg 6 h apart, day 35
[2] = female, 34.6 mg/kg, dog 6F, 34.6 mg/kg (160 μmol/kg) split in two 6 h apart, day 7
[3] = male, 8.65 mg/kg, dog 3M, 8.65 mg/kg (40 μmol/kg) split in two 6 h apart, day 7
[4] = male, 8.65 mg/kg, dog 3M, 8.65 mg/kg (40 μmol/kg) split in two 6 h apart, day 35
[5] = male, 17.3 mg/kg, dog 3M, 17.3 mg/kg (80 μmol/kg) split in two 6 h apart, day 7
[6] = male, 17.3 mg/kg, dog 3M, 17.3 mg/kg (80 μmol/kg) split in two 6 h apart, day 35
[7] = male, 26 mg/kg, dog 6M, 26.0 mg/kg (120 μmol/kg) split into 17.3 and 8.7 mg/kg 6 h apart, day 35
[8] = male, 34.6 mg/kg, dog 6M, 34.6 mg/kg (160 μmol/kg) split in two 6 h apart, day 7
[9] = both sexes, rat 1M+1F, DMR4, single oral 2.16 mg/kg (10 μmol/kg)
[10] = female, rat 2F, 0619LR, single oral 149 mg/kg (690 μmol/kg)
[11] = male, rat 3M, 0619LR, single oral 201 mg/kg (930 μmol/kg)
[12] = male, rat 4M, 20030191PCR, single oral 1.08 mg/kg (5 μmol/kg)
[13] = male, rat 4M, 20030191PCR, single oral 32.4 mg/kg (150 μmol/kg)
[14] = male, rat 4M, 20030191PCR, single oral 54.1 mg/kg (250 μmol/kg)
[15] = male, rat 4M, 20030191PCR, single oral 86.5 mg/kg (400 μmol/kg)

c1cnc2c(c1)C[C@@]1(CN3CCC1CC3)O2 [AZD0328, (R)-Spiro[1-azabicyclo[2.2.2]octane-3,2′(3′H)-furo[2,3-b]pyridine]]
Tmax at 35 day (Multiple dose PK/TK, dog; female, 17.3 mg/kg, dog 3F, 17.3 mg/kg (80 μmol/kg) split in two 6 h apart, day 35): 1 to 9 h | AUC (Multiple dose PK/TK, dog; [1]): 3460 ng·h/mL and 16 µM·h | Cmax (Multiple dose PK/TK, dog; [1]): 1190 ng/mL and 5.49 µM | Tmax (Multiple dose PK/TK, dog; [1]): 1 to 8.5 h | AUC (Multiple dose PK/TK, dog; [2]): 19.2 µM·h | AUC at 7 day (Multiple dose PK/TK, dog; [2]): 4160 ± 1990 ng·h/mL | Cmax (Multiple dose PK/TK, dog; [2]): 8.69 µM | Cmax at 7 day (Multiple dose PK/TK, dog; [2]): 1880 ± 1060 ng/mL | Tmax at 7 day (Multiple dose PK/TK, dog; [2]): 0.5 to 6.5 h | AUC at 7 day (Multiple dose PK/TK, dog; [3]): 868 ng·h/mL and 4 µM·h | Cmax at 7 day (Multiple dose PK/TK, dog; [3]): 286 ng/mL and 1.32 µM | Tmax at 7 day (Multiple dose PK/TK, dog; [3]): 0.5 to 7 h | AUC at 35 day (Multiple dose PK/TK, dog; [4]): 1250 ng·h/mL and 5.79 µM·h | Cmax at 35 day (Multiple dose PK/TK, dog; [4]): 373 ng/mL and 1.73 µM | Tmax at 35 day (Multiple dose PK/TK, dog; [4]): 8.5 to 9 h | AUC at 7 day (Multiple dose PK/TK, dog; [5]): 1930 ng·h/mL and 8.92 µM·h | Cmax at 7 day (Multiple dose PK/TK, dog; [5]): 619 ng/mL and 2.86 µM | Tmax at 7 day (Multiple dose PK/TK, dog; [5]): 6.5 to 7 h | AUC at 35 day (Multiple dose PK/TK, dog; [6]): 1690 ng·h/mL and 7.85 µM·h | Cmax at 35 day (Multiple dose PK/TK, dog; [6]): 608 ng/mL and 2.81 µM | Tmax at 35 day (Multiple dose PK/TK, dog; [6]): 1 to 9 h | AUC (Multiple dose PK/TK, dog; [7]): 4530 ng·h/mL and 20.9 µM·h | Cmax (Multiple dose PK/TK, dog; [7]): 8.16 µM | Tmax (Multiple dose PK/TK, dog; [7]): 0.5 to 2 h | AUC (Multiple dose PK/TK, dog; [8]): 5260 ng·h/mL and 24.3 µM·h | Cmax (Multiple dose PK/TK, dog; [8]): 1910 ng/mL and 8.82 µM | Tmax (Multiple dose PK/TK, dog; [8]): 0.5 to 7 h | dose up to which nicotine-like stimulus properties were lacking (rats; rat, sc): properties at doses up to 5.4 mg/kg | nicotine-like stimulus effects (rats; rats trained to discriminate 0.3 mg/kg nicotine, sc): lack of nicotine-like stimulus properties | rate of responding (rats; rats, doses up to 30 mg/kg sc): severely depressed the rate of responding | concentration with significant prolongation of APD50, APD70 and APD90 (dog Purkinje fibre): ≥ 5.6 µM | AUC (Single dose PK/TK, rat; [9]): 699 ng·h/mL to 861 ng·h/mL and 3.23 µM·h to 3.98 µM·h | Cmax (Single dose PK/TK, rat; [9]): 251 ng/mL to 344 ng/mL and 1.16 µM to 1.59 µM | Tmax (Single dose PK/TK, rat; [9]): 0.5 to 1 h | AUC (Single dose PK/TK, rat; [10]): 76600 ng·h/mL and 354 µM·h | Cmax (Single dose PK/TK, rat; [10]): 4740 ng/mL to 11600 ng/mL and 21.9 µM | AUC (Single dose PK/TK, rat; [11]): 49800 ng·h/mL and 230 µM·h | Cmax (Single dose PK/TK, rat; [11]): 15.9 µM and 3440 ng/mL | AUC (Single dose PK/TK, rat; [12]): 441 ng·h/mL and 2.04 µM·h | Cmax (Single dose PK/TK, rat; [12]): 99.9 ng/mL and 462 nM | Tmax (Single dose PK/TK, rat; [12]): 1 h | AUC (Single dose PK/TK, rat; [13]): 26600 ng·h/mL and 123 µM·h | Cmax (Single dose PK/TK, rat; [13]): 2570 ng/mL and 11.9 µM | Tmax (Single dose PK/TK, rat; [13]): 1 h | AUC (Single dose PK/TK, rat; [14]): 37900 ng·h/mL and 175 µM·h | Cmax (Single dose PK/TK, rat; [14]): 4500 ng/mL and 20.8 µM | Tmax (Single dose PK/TK, rat; [14]): 1 h | AUC (Single dose PK/TK, rat; [15]): 90000 ng·h/mL and 416 µM·h | Cmax (Single dose PK/TK, rat; [15]): 6750 ng/mL and 31.2 µM | Tmax (Single dose PK/TK, rat; [15]): 1 h | F (Single dose PK/TK, rat; rat 1M+1F, DMR4, oral 2.16 mg/kg vs iv 1.08 mg/kg): 78-84% | plasma concentrations (Single dose PK/TK, rat; rat, 1 mg per kg (minimum effective dose in fimbria fornix model)): 0.29 to 1.4 µM | estimated plasma concentrations (Single dose PK/TK, rat; rats, extended to mice, 0.001-0.1 mg per kg): 0.29 to 100 nM

— patent US20080242688A1, “Method 741” (ASTRAZENECA AB, priority 2007, published 2008)
